The results in this text go back to patent US20160159774A1 (Celgene Avilomics Research, Inc., priority 2014, published 2016).

In one experiment the target is T1, activated BTK enzyme (Homo sapiens, UniProt Q06187).
T1 construct: purchased Life Technologies PV3363
Nature of the experiment: Omnia assay for potency assessment against BTK. The class given is biochemical. The note with it: BTK inhibition assay; [BTK]=5 nM, [ATP]=40 μM, [Y5-Sox]=10 μM. An excerpt: Omnia Assay Protocol for Potency Assessment Against BTK
The protocol below describes an assay to measure potency of compounds against the activated BTK enzyme. The mechanics of the assay platform are best described by the vendor (Life Technologies, Carlsbad, Calif.) on their website at the following URLs: www.lifetechnologies.com/us/en/home/life-science/drug-discovery/target-and-lead-identification-and-validation/kinasebiology/kinase-activity-assays/omnia-kinase-assays/omnia-kinase-principle.html and tools.lifetechnologies.com/content/sfs/manuals/omnia_kinase_assay_man.pdf
Briefly, 10× stocks of BTK (PV3363) from Life Technologies, 1.13×ATP (AS00lA) and Sox conjugated peptide substrates, Y5-Sox, (KZN305l) were prepared in 1× kinase reaction buffer consisting of 20 mM Tris, pH 7.5, 5 mM MgCl2, 1 mM EGTA, 5 mM (3-glycerophosphate, 5% glycerol (10× stock, KB002A) and 0.2 mM DTT (DS00lA). 5 μL of each enzyme were pre-incubated in a Corning (#3574) 384-well, white, non-binding surface microtiter plate (Corning, N.Y.) for 30 min. at room temperature with a 0.5 μL volume of 50% DMSO or serially diluted compounds prepared in 50% DMSO. Kinase reactions were started with the addition of […] of the ATP/Tyr-Sox peptide substrate Y5 mix and monitored every 71 seconds for 60 minutes at λex360/λem485 in a Synergy4 plate reader from BioTek (Winooski, Vt.). At the conclusion of each assay, progress curves from each well were examined for linear reaction kinetics and fit statistics (R2, 95% confidence interval, absolute sum of squares). Initial velocity (0 minutes to ˜30 minutes) from each reaction was determined from the slope of a plot of relative fluorescence units vs time (minutes) and then plotted against inhibitor concentration to estimate IC50 from log [Inhibitor] vs Response, Variable Slope model in GraphPad Prism from GraphPad Software (San Diego, Calif.).
Reagent conditions for the assay are:
[BTK]=5 nM, [ATP]=40 μM, [Y5-Sox]=10 μM (ATP KMapp˜36 μM).
The compound numbers correspond to the compound numbers in the examples.

In experiment [1] the target is T2, BTK in Ramos human Burkitt lymphoma cells (Homo sapiens, UniProt Q06187).
T2 construct: Compounds of this invention were assayed in Ramos human Burkitt lymphoma cells; endogenous in cells; host or cells: Ramos human Burkitt lymphoma cells
T2 sequence (Q06187 whole entry): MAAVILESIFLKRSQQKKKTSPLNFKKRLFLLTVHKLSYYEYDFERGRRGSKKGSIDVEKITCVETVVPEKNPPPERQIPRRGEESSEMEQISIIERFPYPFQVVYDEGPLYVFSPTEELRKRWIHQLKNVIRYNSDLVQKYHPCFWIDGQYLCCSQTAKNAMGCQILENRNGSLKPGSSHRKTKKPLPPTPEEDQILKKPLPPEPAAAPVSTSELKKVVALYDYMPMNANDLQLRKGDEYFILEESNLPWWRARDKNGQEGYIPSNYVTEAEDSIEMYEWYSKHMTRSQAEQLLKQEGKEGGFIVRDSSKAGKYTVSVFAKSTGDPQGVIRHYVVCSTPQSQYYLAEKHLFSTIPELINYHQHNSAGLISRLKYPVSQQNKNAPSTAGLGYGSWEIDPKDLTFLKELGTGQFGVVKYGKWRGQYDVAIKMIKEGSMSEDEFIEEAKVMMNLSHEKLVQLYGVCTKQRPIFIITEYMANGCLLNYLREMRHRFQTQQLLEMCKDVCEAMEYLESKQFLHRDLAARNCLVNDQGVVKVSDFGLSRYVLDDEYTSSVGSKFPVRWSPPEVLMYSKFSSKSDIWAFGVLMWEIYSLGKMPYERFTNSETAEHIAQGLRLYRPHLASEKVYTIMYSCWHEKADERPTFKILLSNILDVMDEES
Briefly: BTK Ramos cellular assay (BTK occupancy). Type of experiment: cell-based. To be noted: concentration producing 50% occupancy of BTK, 1 hour incubation with compound. As for the experimental part:
BTK activity in Ramos cells, in the presence of a compound of the invention, can be measured by 3 different methods: 1) inhibition of autophosphorylation of BTK; 2) inhibition of phosphorylation of the immediate BTK surrogate PLCγ2; and 3) BTK occupancy. […] In this instance, BTK occupancy was chosen and is described below.
Compounds of this invention were assayed in Ramos human Burkitt lymphoma cells. Ramos cells were grown in suspension in T175 flasks, spun down, resuspended to a concentration of 2×10^6 cells per mL in serum-free media and incubated for 1 hour. Compound was added to Ramos cells to a final concentration of 500, 166.7, 55.6, 18.5, 6.2, 2.1, and 0.7 nM. Ramos cells were incubated with compound for 1 hour, washed with PBS and lysed in 1004 of BioRad lysis Buffer. Cell lysates were incubated with a biotinylated covalent probe (compound 1-215 disclosed in U.S. published application number 2010/0029610, incorporated by reference in its entirety) at a final concentration of 1 μM in a PBS, 0.05% Tween-20, 1% BSA solution for 1 h at room temperature. Standards and samples were transferred to a streptavidin-coated 96-well ELISA plate and mixed while shaking for 1 h at room temperature. The α-Btk antibody (BD 611116, 1:1000 dilution in PBS+0.05% Tween-20+0.5% BSA) was then added and incubated for 1 h at room temperature. After wash, goat α-mouse-HRP (1:5000 dilution in PBS+0.05% Tween-20+0.5% BSA) was added and incubated for 1 h at room temperature. The ELISA was developed with addition of tetramethyl benzidine (TMB) followed by Stop Solution and read at OD 450 nm. The standard curve (11.7-3000 pg/μL) was generated with human full-length recombinant Btk protein and plotted using a 4 parameter curve fit in Gen5 software. Uninhibited Btk detected from samples was normalized to μg total protein as determined by BCA protein analysis (Pierce Cat. 23225).
The results of this assay show the concentration of compound producing 50% occupancy of BTK. This level of occupancy empirically translates to a level of 50% inhibition of BTK activity (both as measured by autophosphorylation and by phosphorylation of PLCγ2). […] The compound numbers correspond to the compound numbers in the examples.

T1 sequence (Q06187 whole entry): as above

`C=CC(=O)N1CCC[C@@H](Nc2nc(Nc3ccc4c(c3)CNC4)ncc2F)C1` [Compound I-1, (R)-1-(3-((5-fluoro-2-(isoindolin-5-ylamino)pyrimidin-4-yl)amino)piperidin-1-yl)prop-2-en-1-one]: the IC50 on activated BTK enzyme was less than 10 nM. In addition, in experiment [1], the EC50 lay within 10 to 100 nM.

`C=CC(=O)N1CCC[C@@H](Nc2nc(Nc3ccc4c(c3)CN(C)C4)ncc2F)C1` [Compound I-2, (R)-1-(3-((5-Fluoro-2-((2-methylisoindolin-5-yl)amino)pyrimidin-4-yl)amino)piperidin-1-yl)prop-2-en-1-one]: the IC50 on activated BTK enzyme was less than 10 nM. Moreover, the EC50 in experiment [1] is less than 10 nM.

Take `C=CC(=O)N1CCC[C@@H](Nc2nc(Nc3ccc4c(c3)CN(C(C)=O)C4)ncc2F)C1` [Compound I-3, (R)-1-(3-((2-((2-Acetylisoindolin-5-yl)amino)-5-fluoropyrimidin-4-yl)amino)-piperidin-1-yl)prop-2-en-1-one]: the IC50 at activated BTK enzyme is less than 10 nM. The EC50 in experiment [1] was 101 to 1000 nM.

In the case of `C=CC(=O)N1CCC[C@@H](Nc2nc(Nc3ccc4c(c3)CN(CCOC)C4)ncc2F)C1` [Compound I-4, (R)-1-(3-((5-Fluoro-2-((2-(2-methoxyethyl)isoindolin-5-yl)amino)pyrimidin-4-yl)amino)piperidin-1-yl)prop-2-en-1-one], the IC50 at activated BTK enzyme was less than 10 nM. Moreover, in experiment [1], the concentration giving a half-maximal response (EC50) was 10 to 100 nM.

Consider `C=CC(=O)N1CCC[C@@H](Nc2nc(Nc3ccc4c(c3)CN(C3CCNCC3)C4)ncc2F)C1` [Compound I-5, (R)-1-(3-((5-fluoro-2-((2-(piperidin-4-yl)isoindolin-5-yl)amino)pyrimidin-4-yl)amino)piperidin-1-yl)prop-2-en-1-one], for which the IC50 at activated BTK enzyme is less than 10 nM. In addition, the EC50 in experiment [1] lay within 101 to 1000 nM.

Take `C=CC(=O)N1CCC[C@@H](Nc2nc(Nc3ccc4c(c3)CN(CC3CCNCC3)C4)ncc2F)C1` [Compound I-6, (R)-1-(3-((5-Fluoro-2-((2-(piperidin-4-ylmethyl)isoindolin-5-yl)amino)pyrimidin-4-yl)amino)piperidin-1-yl)prop-2-en-1-one]: the IC50 on activated BTK enzyme is less than 10 nM. In addition, the EC50 in experiment [1] was in the range of 101 to 1000 nM.

Turning to `C=CC(=O)N1CCC[C@@H](Nc2nc(Nc3ccc4c(c3)CN(C3CCN(C)CC3)C4)ncc2F)C1` [Compound I-7, (R)-1-(3-((5-Fluoro-2-((2-(1-methylpiperidin-4-yl)isoindolin-5-yl)amino)-pyrimidin-4-yl)amino)piperidin-1-yl)prop-2-en-1-one], at activated BTK enzyme, the IC50 was less than 10 nM. The EC50 in experiment [1] lay within 10 to 100 nM.

Take `C=CC(=O)N1CCC[C@@H](Nc2nc(Nc3ccc4c(c3)CN(CC3CCN(C)CC3)C4)ncc2F)C1` [Compound I-8]: at activated BTK enzyme, the IC50 was less than 10 nM. The half-maximal effective concentration (EC50) in experiment [1] is less than 10 nM.

On to `C=CC(=O)N1CCC[C@@H](Nc2nc(Nc3ccc4c(c3)CN(C3CCN(C(C)=O)CC3)C4)ncc2F)C1` [Compound I-9, (R)-1-(3-(2-(2-(1-Acetylpiperidin-4-yl)isoindolin-5-ylamino)-5-fluoropyrimidin-4-ylamino)piperidin-1-yl)prop-2-en-1-one], for which the IC50 at activated BTK enzyme is less than 10 nM. Moreover, in experiment [1], the EC50 was 10 to 100 nM.

For the compound `C=CC(=O)N1CCC[C@@H](Nc2nc(Nc3ccc4c(c3)CN(CC3CCN(C(C)=O)CC3)C4)ncc2F)C1` [Compound I-10], on activated BTK enzyme, the IC50 was less than 10 nM. Also, in experiment [1], the EC50 lay in the range of 10 to 100 nM.

For `C=CC(=O)N1CCC[C@@H](Nc2nc(Nc3ccc4c(c3)CN(CC3CCOCC3)C4)ncc2F)C1` [Compound I-11, (R)-1-(3-(5-Fluoro-2-(2-((tetrahydro-2H-pyran-4-yl)methyl)isoindolin-5-ylamino)pyrimidin-4-ylamino)piperidin-1-yl)prop-2-en-1-one], the IC50 on activated BTK enzyme is less than 10 nM. In experiment [1], the EC50 was less than 10 nM.

For the compound `C=CC(=O)N1CCC[C@@H](Nc2nc(Nc3ccc4c(c3)CN(C3CCOCC3)C4)ncc2F)C1` [Compound I-12, (R)-1-(3-((5-Fluoro-2-((2-(tetrahydro-2H-pyran-4-yl)isoindolin-5-yl)amino)-pyrimidin-4-yl)amino)piperidin-1-yl)prop-2-en-1-one], at activated BTK enzyme, the IC50 is less than 10 nM. Also, the EC50 in experiment [1] is 10 to 100 nM.

`C=CC(=O)N1CCC[C@@H](Nc2nc(Nc3ccc4c(c3)CN(C3COC3)C4)ncc2F)C1` [Compound I-13, (R)-1-(3-((5-Fluoro-2-((2-(oxetan-3-yl)isoindolin-5-yl)amino)pyrimidin-4-yl)amino)piperidin-1-yl)prop-2-en-1-one]: the IC50 on activated BTK enzyme was less than 10 nM. In addition, the 50% effective concentration (EC50) in experiment [1] is 10 to 100 nM.

Take `C=CC(=O)N1CCC[C@@H](Nc2nc(Nc3ccc4c(c3)CN(CC(C)(C)C)C4)ncc2F)C1` [Compound I-14, (R)-1-(3-((5-Fluoro-2-((2-neopentylisoindolin-5-yl)amino)pyrimidin-4-yl)amino)piperidin-1-yl)prop-2-en-1-one]: the IC50 on activated BTK enzyme was less than 10 nM. Besides, in experiment [1], the EC50 lay in the range of 10 to 100 nM.

Regarding `C=CC(=O)N1CCC[C@@H](Nc2nc(Nc3ccc4c(c3)CN(CC3COC3)C4)ncc2F)C1` [Compound I-15, (R)-1-(3-((5-Fluoro-2-((2-(oxetan-3-ylmethyl)isoindolin-5-yl)amino)pyrimidin-4-yl)amino)piperidin-1-yl)prop-2-en-1-one], the IC50 at activated BTK enzyme was less than 10 nM. The EC50 in experiment [1] lay in the range of 10 to 100 nM.

On to `C=CC(=O)N1CCC[C@@H](Nc2nc(Nc3ccc4c(c3)CN(CC(N)=O)C4)ncc2F)C1` [Compound I-16], for which the IC50 on activated BTK enzyme is less than 10 nM. In addition, in experiment [1], the EC50 was less than 10 nM.

Regarding `C=CC(=O)N1CCC[C@@H](Nc2nc(Nc3ccc4c(c3)CN(C(C)C)C4)ncc2F)C1` [Compound I-17, (R)-1-(3-((5-Fluoro-2-((2-isopropylisoindolin-5-yl)amino)pyrimidin-4-yl)amino)piperidin-1-yl)prop-2-en-1-one], the half-maximal inhibitory concentration (IC50) at activated BTK enzyme was less than 10 nM. Further, the EC50 in experiment [1] is less than 10 nM.

Take `C=CC(=O)N1CCC[C@@H](Nc2nc(Nc3ccc4c(c3)CN(C3CCC3)C4)ncc2F)C1` [Compound I-18, (R)-1-(3-((2-((2-Cyclobutylisoindolin-5-yl)amino)-5-fluoropyrimidin-4-yl)amino)piperidin-1-yl)prop-2-en-1-one]: the IC50 on activated BTK enzyme was less than 10 nM. Moreover, in experiment [1], the EC50 is less than 10 nM.

Regarding `C=CC(=O)N1CCC[C@@H](Nc2nc(Nc3ccc4c(c3)CN(CC3CC3)C4)ncc2F)C1` [Compound I-19, (R)-1-(3-((2-((2-(cyclopropylmethyl)isoindolin-5-yl)amino)-5-fluoropyrimidin-4-yl)amino)piperidin-1-yl)prop-2-en-1-one], the IC50 on activated BTK enzyme is less than 10 nM. The EC50 in experiment [1] was less than 10 nM.

With `C=CC(=O)N1CC2CC(Nc3nc(Nc4ccc5c(c4)CN(C)C5)ncc3F)C1C2` (stereo not drawn) [Compound I-66, 1-(6-((5-fluoro-2-((2-methylisoindolin-5-yl)amino)pyrimidin-4-yl)amino)-2-azabicyclo[2.2.1]heptan-2-yl)prop-2-en-1-one], at activated BTK enzyme, the IC50 was 101 to 1000 nM.

Usually IC50 stands for the concentration that inhibits the measured activity by half. The term EC50 denotes the concentration needed to bring the measured effect to its halfway point.
